Experimental data published in patent publication US9963486B2, “Peptidomimetics for treating HER2-overexpressed cancer” (Board of Supervisors for the University of Louisiana System, priority 2014, dated 2018).
Where two headings read alike, the source gives them in different places. Numbered stars: 1 amine (or outer) side, 2 acyl side, 3 side chain; on linkers, the order of the positions; unused ones are H or OH. Square brackets hold non-standard residues; d marks the D form. Peptide text beside a SMILES is read from it. βAla(3R-(1-naphthyl)) = O=C(C[C@@H](N[*:1])c1cccc2ccccc12)[*:2]; X1 = O=C(CC(N[*:1])c1cccc2ccccc12)[*:2]

Key:
[1] = system: BT-474 HER2-overexpressing breast cancer cells
Description: (§1) Compounds were tested for antiproliferative activity against several cancer cell lines and a control cell line. […] CP was the control peptidomimetic. […] SKOV-3 and Calu-3 are HER2-overexpressing ovarian and lung cancer cells, respectively. (+) and (−) indicate HER2-positive and HER2-negative, respectively.

[2] = system: MCF-7 breast cancer cells that do not overexpress HER2
Description: as §1

[3] = system: SKBR-3 HER2-overexpressing breast cancer cells
Description: as §1

[4] = system: Calu-3 HER2-overexpressing lung cancer cells
Description: as §1

[5] = system: SKOV-3 HER2-overexpressing ovarian cancer cells
Description: as §1

[6] = Stability in mouse serum (electrospray-mass spectrometry)
Description: (§2) Compounds were incubated in mouse serum for various times, and then extracted using a solid-phase extraction technique. The compounds were analyzed with electrospray-mass spectrometry. A known amount of a freshly-prepared internal standard was used for calibration.

[7] = system: BT-474 HER2-overexpressing breast cancer cells; test: cells; conditions: Homo sapiens, BT-474, read-out: IC50 BT-474 (+)
Description: as §1

[8] = system: HER2-expressing breast tumors (BT-474 cells); test: BT-474 xenograft model of breast cancer, tumor volume; format: in vivo, nude mice; conditions: 4 mg/kg injected just below the tumor, twice a week for 19 days; Days 9-19
Description: We evaluated the ability of Compound 18 to suppress HER2-expressing breast tumors in a xenograft model of breast cancer. Breast cancer tumors were induced in nude mice by injecting 2 million BT-474 cells; these estrogen-dependent cancer cells were stimulated by an implanted estrogen pellet. Compound 9, Compound 18, vehicle, or lapatinib (positive control) were injected just below the tumor at a dose of 4 mg/kg, twice a week for 19 days, for a total of 6 injections. Mice weight and health were monitored daily. Tumor size was measured with Vernier calipers. Tumor volume was estimated using the formula Volume=length×0.5 (width)^2. At the end of the experimental period, mice were euthanized and tumor sections were removed and frozen for further analysis. FIG. 9 depicts tumor volume as a function of time for the various treatments.

[9] = mouse, serum
Description: as §2

[10] = system: MCF-10A normal breast epithelial cell line
[11] = read-out: IC50 SKOV-3 (+), antiproliferative activity, HER2-positive ovarian cancer cells, Table 3
[12] = read-out: IC50 SKBR-3 (+), antiproliferative activity, HER2-positive breast cancer cells, Table 3
[13] = read-out: IC50 MCF-7 (−), antiproliferative activity, HER2-negative breast cancer cells, Table 3
[14] = read-out: IC50 Calu-3 (+), antiproliferative activity, HER2-positive lung cancer cells, Table 3
[15] = read-out: IC50 BT-474 (+), antiproliferative activity, HER2-positive breast cancer cells, Table 3

With `N=C(N)NCCC[C@H]1NC(=O)[C@H]2CCCN2C(=O)[C@@H]2CCCN2C(=O)[C@@H](CC(=O)O)NC(=O)[C@@H](Cc2ccccc2)NC(=O)C[C@H](c2cccc3ccccc23)NC(=O)[C@@H](CCCNC(=N)N)NC(=O)[C@@H](CC(=O)O)NC(=O)[C@@H](Cc2ccccc2)NC(=O)C[C@H](c2cccc3ccccc23)NC1=O` [Compound 41, Cyclo(Ppr-(R)Anapa-fdr-(R)Anapa-fd] (cyclo(P[dP][dR][βAla(3R-(1-naphthyl))][dF][dD][dR][βAla(3R-(1-naphthyl))][dF][dD])) the IC50 [1] was 850 ± 70 nM.
For `N=C(N)NCCC[C@@H]1NC(=O)[C@H]2CCCN2C(=O)[C@@H]2CCCN2C(=O)[C@H](CCCCN)NC(=O)C[C@H](c2cccc3ccccc23)NC(=O)[C@H](Cc2ccccc2)NC(=O)[C@H](CC(=O)O)NC(=O)[C@H](CC(=O)O)NC(=O)[C@H](Cc2ccccc2)NC(=O)C[C@H](c2cccc3ccccc23)NC1=O` [Compound 33, Cyclo(PpR-(R)Anapa-FDDF-(R)Anapa-K], the IC50 [2] was greater than 100000 nM, the IC50 [1] was 400 ± 140 nM and the IC50 [3] was 500 ± 280 nM. The IC50 [4] was 900 ± 200 nM.
Work on `N=C(N)NCCC[C@H](N)C(=O)NC(CC(=O)N[C@@H](Cc1ccccc1)C(=O)O)c1cccc2ccccc12` (some centres unmarked) [Compound 5, H2N-R(Anapa)F-OH] yielded an IC50 [5, 11] of 658 ± 40 nM, a half-life ([6]; mouse, serum) of 2 to 3 h and an IC50 [3, 12] of 396 ± 22 nM.
For `CS(=O)(=O)CCNCc1ccc(-c2ccc3ncnc(Nc4ccc(OCc5cccc(F)c5)c(Cl)c4)c3c2)o1` [Lapatinib, reference compound], the IC50 [7] was 25 ± 4 nM and the “tumor volume compared to control” value [8] was “decreased tumor volume”.
For `CC(=O)N[C@H](Cc1ccccc1)C(=O)NC(CC(=O)N[C@H](CCCNC(=N)N)C(N)=O)c1cccc2ccccc12` (some centres unmarked) [Compound 21, Ac-f(Anapa)r-NH2], the IC50 [2] was greater than 50000 nM, the IC50 [1] was 595 ± 270 nM and the IC50 [5] was 373 ± 150 nM. For the same compound, the IC50 [3] was 373 ± 150 nM and the IC50 [4] was 1090 ± 310 nM.
Work on `N=C(N)NCCC[C@H]1NC(=O)[C@H]2CCCN2C(=O)[C@@H]2CCCN2C(=O)[C@@H](CCCNC(=N)N)NC(=O)C[C@H](c2cccc3ccccc23)NC(=O)[C@@H](Cc2ccccc2)NC(=O)[C@@H](CC(=O)O)NC(=O)[C@@H](CC(=O)O)NC(=O)[C@@H](Cc2ccccc2)NC(=O)C[C@H](c2cccc3ccccc23)NC1=O` [Compound 38, Cyclo(Ppr-(R)Anapa-fddf-(R)Anapa-r] (cyclo(P[dP][dR][βAla(3R-(1-naphthyl))][dF][dD][dD][dF][βAla(3R-(1-naphthyl))][dR])) yielded an IC50 ([2]; read-out: Antiproliferative activity IC50 MCF-7, Table 5) of 13500 ± 700 nM, an IC50 ([1]; read-out: Antiproliferative activity IC50 BT-474, Table 5) of 860 ± 50 nM and an IC50 ([3]; read-out: Antiproliferative activity IC50 SKBR-3, Table 5) of 800 ± 70 nM. It also gave an IC50 ([4]; read-out: Antiproliferative activity IC50 Calu-3, Table 5) of 550 ± 200 nM.
In the case of `N=C(N)NCCC[C@@H]1NC(=O)[C@H]2CCCN2C(=O)[C@@H]2CCCN2C(=O)[C@H](CCCNC(=N)N)NC(=O)CC(c2cccc3ccccc23)NC(=O)[C@H](Cc2ccccc2)NC(=O)[C@H](CC(=O)O)NC(=O)[C@H](CC(=O)O)NC(=O)[C@H](Cc2ccccc2)NC(=O)CC(c2cccc3ccccc23)NC1=O` (some centres unmarked) [Compound 18, Cyclo(1,10)PpR(Anapa)FDDF(Anapa)R] (cyclo(P[dP]R[X1]FDDF[X1]R)), the IC50 [2, 13] is reported as greater than 50000 nM, the half-life [9] is reported as greater than 48 h and the IC50 [5, 11] is reported as 853 ± 102 nM. For the same compound, the “toxicity to normal cells” value [10] was “not toxic to normal cells”, the IC50 ([10]; read-out: IC50 MCF-10A, antiproliferative activity, normal breast epithelial cell line) was 40000 nM and the IC50 [3, 12] was 194 ± 46 nM. The IC50 [4, 14] was 18 ± 13 nM.
With “H2N-K(3-amino-biphenyl propionic acid)F-OH [CP, reference compound]” the IC50 [2, 13] was greater than 100000 nM, the IC50 [1, 15] was greater than 100000 nM and the IC50 [5, 11] was greater than 100000 nM. The IC50 [3, 12] was greater than 100000 nM and the IC50 [4, 14] was greater than 100000 nM.
Compound H2N-R(Anapa)FD-OH [Compound 9] has an IC50 [2, 13] of 45000 nM, an IC50 [1, 15] of 785 ± 11 nM and an IC50 [5, 11] of 417 ± 55 nM. The “time within which degraded in mouse serum” value ([6]; mouse serum, FIG. 10) was no more than 24 h, the “tumor volume compared to control” value [8] was “decreased tumor volume” and the IC50 [3, 12] was 445 ± 32 nM. It also gave an IC50 [4, 14] of 847 ± 71 nM.
